Measurements published in the Kinase Knowledgebase extract (Sharma et al. 2016).

Each molecule was assayed against MAPK14 (UniProt Q16539) (assay: Inhibition of MAPK14 Kinase Activity).
Chain of MAPK14 (Q16539 whole entry, looked up): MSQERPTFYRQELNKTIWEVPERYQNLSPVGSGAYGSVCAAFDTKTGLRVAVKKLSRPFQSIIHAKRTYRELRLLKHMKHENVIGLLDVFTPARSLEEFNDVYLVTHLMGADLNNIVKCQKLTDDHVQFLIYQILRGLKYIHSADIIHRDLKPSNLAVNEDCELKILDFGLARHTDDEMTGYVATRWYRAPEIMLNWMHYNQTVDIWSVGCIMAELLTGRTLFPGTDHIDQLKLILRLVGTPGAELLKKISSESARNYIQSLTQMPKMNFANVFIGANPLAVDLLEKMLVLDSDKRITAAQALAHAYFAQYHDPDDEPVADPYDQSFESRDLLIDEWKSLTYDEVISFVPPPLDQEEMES

| IC50 | Compound |
| --- | --- |
| 4640 nM | O=C(Nc1ccc2c(-c3c(-c4ccccn4)nn4c3CCC4)ccnc2c1)Nc1ccc2c(-c3c(-c4ccccn4)nn4c3CCC4)ccnc2c1 |
| 526 nM | COC(=O)Nc1ccc2c(-c3c(-c4ccccn4)nn4c3CCC4)ccnc2c1 |
| 1050 nM | COCCNC(=O)Nc1ccc2c(-c3c(-c4ccccn4)nn4c3CCC4)ccnc2c1 |
| 867 nM | CN(C)CCNC(=O)Nc1ccc2c(-c3c(-c4ccccn4)nn4c3CCC4)ccnc2c1 |
| 1340 nM | CC(=O)Nc1ccc2c(-c3c(-c4ccccn4)nn4c3CCC4)ccnc2c1 |
| 2060 nM | O=C1OCCN1c1ccc2c(-c3c(-c4ccccn4)nn4c3CCC4)ccnc2c1 |
| 2460 nM | CN(C)CCC(=O)Nc1ccc2c(-c3c(-c4ccccn4)nn4c3CCC4)ccnc2c1 |
| 1460 nM | CN(C)CC(=O)Nc1ccc2c(-c3c(-c4ccccn4)nn4c3CCC4)ccnc2c1 |
| 616 nM | O=C(Nc1ccc2c(-c3c(-c4ccccn4)nn4c3CCC4)ccnc2c1)OCCO |
| 2570 nM | Nc1ccc2c(-c3c(-c4ccccn4)nn4c3CCC4)ccnc2c1 |
| 1080 nM | O=C(NCCO)Nc1ccc2c(-c3c(-c4ccccn4)nn4c3CCC4)ccnc2c1 |
